Reference: publication PMC7823860, “Flavonoid Glycosides with a Triazole Moiety for Marine Antifouling Applications: Synthesis and Biological Activity Evaluation” (Marine Drugs, 2020)
Values joined by “and” are separate entries in the source; they are usually repeats but may differ in a detail not shown here. Equal values may be shown once. Read-outs that look alike come from different tables or passages of the source.

Columns and labels:
[1] = Mussel (Mytilus galloprovincialis) larvae anti-settlement bioassay; assay type: in vivo; conditions: in vivo, mussel plantigrade larvae, read-out: LC50 (median lethal dose)
Method: (§1) Mussel (Mytilus galloprovincialis) plantigrades were collected in juvenile aggregates during low neap tides at Memória beach, Matosinhos, Portugal (41°13′59″ N; 8°43′28″ W). In laboratory, mussel plantigrade larvae (0.5–2 mm) were isolated in a binocular magnifier (Olympus SZX2-ILLT, Tokyo, Japan) to a petri dish with filtered seawater, and those with functional foot and competent exploring behaviour were selected for the bioassays. The flavonoids were screened at 50 µM in 24-well microplates with 4 well replicates per condition and 5 larvae per well, for 15 h, in the darkness at 18 ± 1 °C, following Almeida et al. (2015). Test solutions were obtained by dilution of the compounds stock solutions (50 mM) in DMSO and prepared with filtered seawater. All bioassays included a negative control with DMSO and a positive control with CuSO4, a potent AF agent. After the exposure period, the anti-settlement activity was determined by the presence/absence of attached byssal threads produced by each individual larvae.
(§2) All compounds that caused more than 60% of settlement inhibition (≤40% of settlement) in the screening bioassay were considered active and selected for the determination of the semi-maximum response concentration that inhibited 50% of larval settlement (EC50), at compounds concentrations of 3.12, 6.25, 12.5, 25, 50, 100, 200 μM.
(§3) Datasets from anti-settlement, antibacterial and anti-microalgal bioassay, and determination of AChE and Tyr activities, were analysed by one-way analysis of variance (ANOVA) followed by a multi-comparisons Dunnett’s test against negative control (p < 0.05). For the AF bioassays, the half maximum response concentration (EC50) values for each compound, when applicable, were calculated using Probit regression analysis. Significance was considered at p < 0.01, and 95% lower and upper confidence limits (95%LCL; UCL). The software IBM SPSS Statistics 26 (Armonk, New York, USA) was used for statistical analysis.

[2] = system: Mytilus galloprovincialis plantigrade larvae; experiment: as above; assay type: in vivo; conditions: 15 h, 15 h exposure, read-out: EC50 (minimum concentration that inhibited 50% of larval settlement)
Method: as §1, §2, §3

[3] = system: Roseobacter litoralis CECT 5395; experiment: Biofilm-forming marine bacteria growth inhibition; assay type: cell-based; conditions: 15 µM, 24 h, Dunnett test p < 0.05
Method: For anti-bacterial screening, five strains of marine biofilm-forming bacteria from the Spanish Type Culture Collection (CECT): Cobetia marina CECT 4278, Vibrio harveyi CECT 525, Halomonas aquamarina CECT 5000, Pseudoalteromonas atlantica CECT 570, and Roseobacter litoralis CECT 5395 were used. Bacteria were inoculated and incubated for 24 h at 26 °C in marine broth (Difco) at an initial density of 0.1 (OD600) in 96 well flat-bottom microtiter plates and exposed to the test compounds at 15 μM. Test solutions were obtained by dilution of the compounds stock solutions (50 mM) in DMSO. Bacterial growth inhibition in the presence of the compounds was determined in quadruplicate at 600 nm using a microplate reader (Biotek Synergy HT, Vermont, USA). Negative and positive controls used were a solution of marine broth with DMSO, and a solution of marine broth with penicillin–streptomycin–neomycin, respectively. […]
as §3, with “Significance was considered at p < 0.01, and 95% lower and upper confidence limits (95%LCL; UCL). The software IBM SPSS Statistics 26 (Armonk, New York, USA) was used for statistical analysis.” left out

Artemia salina nauplii [4] = experiment: Artemia salina nauplii lethality (ecotoxicity) bioassay; assay type: in vivo; conditions: 25 and 50 μM, 48 h of exposure
Method: The brine shrimp (Artemia salina) nauplii lethality test was used to determine the toxicity of promising AF compounds to non-target organisms. Artemia salina eggs were allowed to hatch in seawater for 48 h at 25 °C. Bioassays were performed in 96-wells microplates with 15–20 nauplii per well and 200 μL of the compounds test solution. Compounds were tested at final concentrations of 25 and 50 μM (filtered seawater with 1% DMSO). All tests included K2Cr2O7 (13.6 μM) as positive control and DMSO (1%) as negative control. Bioassays were run in the dark at 25 °C, and the percentage of mortality was determined after 48 h of exposure.

Agaricus bisporus Tyr = experiment: In vitro tyrosinase (Tyr) inhibition assay (L-Dopa to dopachrome); assay type: biochemical
Method: (§4) The ability of the most promising compounds to inhibit AChE and Tyr was tested to assess their potential mode of action related with neurotransmission disruption or impairment of adhesive metabolism pathways, respectively.
Tyr inhibition assay was performed using Agaricus bisporus Tyr (EC1.14.18.1) according to Adhikari et al. (2008) with some modifications. The enzymatic reaction follows the catalytic conversion of L-Dopa to dopaquinone and the formation of dopachrome by measuring the absorbance at 475 nm. Briefly, Tyr (25 U/mL) was added to 50 mM phosphate buffer pH 6.5 and the tested compounds at 25, 50 and 100 μM (final concentrations, 1% DMSO). The enzymatic activity was triggered by the addition of L-dopa (25 mM). Kojic acid (1.4 mM, water) was included as positive control and 1% DMSO in water as negative control.

[5] = target: T1, Electrophorus electric AChE Type V-S (Electrophorus electricus, UniProt O42275); experiment: In vitro acetylcholinesterase (AChE) activity (Ellman); assay type: biochemical; conditions: 25, 50 and 100 μM; versus negative control, p < 0.05
T1 construct: purchased SIGMA C2888
Method: as §4
AChE activity was evaluated using Electrophorus electric AChE Type V-S (SIGMA C2888, E.C. 3.1.1.7), according to Ellman et al. (1961) with some modifications. Reaction solution containing 1 M phosphate buffer pH 7.2, 10 mM dithiobisnitrobenzoate (DTNB) (acid dithiobisnitrobenzoate and sodium hydrogen carbonate in phosphate buffer) and 0.075 M […] was added to pure AChE enzyme (0.25 U/mL) and each test compound (final concentration of 25, 50 and 100 μM, 1% DMSO) in quadruplicate. All tests included a positive control with eserine (200 μM, water) and a negative control with 1% DMSO in water. The optical density was measured at 412 nm in a microplate reader (Biotek Synergy HT, Winooski, Vermont, USA) during 5 min at 25 °C.

Navicula sp. = experiment: Biofilm-forming marine diatom growth inhibition; assay type: cell-based; conditions: 10 days
Method: The anti-microalgal activity of the most promising compounds was also evaluated against a benthic marine diatom, Navicula sp., purchased from the (Telde, Gran Canaria) Spanish Collection of Algae (BEA). Diatom cells were inoculated in f/2 medium (Sigma) at an initial concentration of 2–4 × 10^6 cells mL^−1 and grown in 96-well flat-bottom microtiter plates for 10 days at 20 °C. Navicula growth inhibition in the presence of each compound at 15 μM was determined in quadruplicate and quantified based on the difference in cell densities among the treatments, and cells were counted using a Neubauer counting chamber. A positive control with cycloheximide (3.55 μM) and a negative control with f/2 medium 0.1% DMSO were included.
as §3

Artemia salina nauplii [6] = system: Artemia salina nauplii; parameters: method as in PMID 29936172; conditions: same concentrations (25 and 50 μM) and conditions; cited from earlier work

T1 sequence (O42275 24-633): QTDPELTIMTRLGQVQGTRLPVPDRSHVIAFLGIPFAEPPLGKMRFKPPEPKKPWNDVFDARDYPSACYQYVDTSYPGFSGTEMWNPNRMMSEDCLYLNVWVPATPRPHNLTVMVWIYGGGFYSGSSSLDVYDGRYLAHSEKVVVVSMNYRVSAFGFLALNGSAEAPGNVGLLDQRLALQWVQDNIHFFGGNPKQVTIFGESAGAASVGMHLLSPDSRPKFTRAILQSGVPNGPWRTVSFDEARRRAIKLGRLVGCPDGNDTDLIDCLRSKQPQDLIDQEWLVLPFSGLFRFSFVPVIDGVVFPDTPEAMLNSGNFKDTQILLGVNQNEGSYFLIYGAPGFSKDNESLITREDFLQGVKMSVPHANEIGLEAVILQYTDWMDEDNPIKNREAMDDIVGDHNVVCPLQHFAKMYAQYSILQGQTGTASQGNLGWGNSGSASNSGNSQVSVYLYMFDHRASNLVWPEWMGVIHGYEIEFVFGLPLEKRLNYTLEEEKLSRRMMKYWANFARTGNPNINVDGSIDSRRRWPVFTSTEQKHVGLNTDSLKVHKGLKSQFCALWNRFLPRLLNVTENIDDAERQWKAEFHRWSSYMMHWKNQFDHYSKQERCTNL

## COc1cc(-c2cc(=O)c3c(O)cc(OCc4cn(CCO[C@@H]5O[C@H](COC(C)=O)[C@@H](OC(C)=O)[C@H](OC(C)=O)[C@H]5OC(C)=O)nn4)cc3o2)cc(OC)c1OC [4b, (2R,3R,4S,5R,6R)-2-(acetoxymethyl)-6-(2-(4-(((5-hydroxy-4-oxo-2-(3,4,5-trimethoxyphenyl)-4H-chromen-7-yl)oxy)methyl)-1H-1,2,3-triazol-1-yl)ethoxy)tetrahydro-2H-pyran-3,4,5-triyl triacetate]
[1]
  LC50 at 15 h: > 200 µM
[2]; 95% CI in cell
  EC50: 48.2 µM
[2]
  EC50: 38.6 µg/mL

## COc1cc(/C=C/C(=O)c2ccc(OCc3cn(CCO[C@H]4O[C@H](COC(C)=O)[C@@H](OC(C)=O)[C@H](OC(C)=O)[C@@H]4OC(C)=O)nn3)cc2O)cc(OC)c1OC [8b, (2R,3R,4S,5S,6S)-2-(acetoxymethyl)-6-(2-(4-((3-hydroxy-4-((E)-3-(3,4,5-trimethoxyphenyl)acryloyl)phenoxy)methyl)-1H-1,2,3-triazol-1-yl)ethoxy)tetrahydro-2H-pyran-3,4,5-triyl triacetate]
[1]
  LC50 at 15 h: > 200 µM
[2]; 95% CI in cell
  EC50: 53.9 µM
[2]
  EC50: 42.4 µg/mL

## C#CCOc1ccc(C(=O)/C=C/c2ccc(OC)c(OC)c2)c(O)c1 [6a]
[3]
  bacterial growth inhibition screening: significant inhibitory activity
[1]
  LC50 at 15 h: > 200 µM
[2]; 95% CI in cell
  EC50: 84.5 µM
[2]
  EC50: 28.6 µg/mL

## COc1ccc(-c2cc(=O)c3c(O)cc(OCc4cn(CCO[C@@H]5O[C@H](COC(C)=O)[C@@H](OC(C)=O)[C@H](OC(C)=O)[C@H]5OC(C)=O)nn4)cc3o2)cc1OC [4a, (2R,3R,4S,5R,6R)-2-(acetoxymethyl)-6-(2-(4-(((2-(3,4-dimethoxyphenyl)-5-hydroxy-4-oxo-4H-chromen-7-yl)oxy)methyl)-1H-1,2,3-triazol-1-yl)ethoxy)tetrahydro-2H-pyran-3,4,5-triyl triacetate]
[1]
  LC50 at 15 h: > 200 µM
[2]; 95% CI in cell
  EC50: 42.6 µM
[2]
  EC50: 32.8 µg/mL

## COc1cc(-c2cc(=O)c3c(O)cc(O)cc3o2)cc(OC)c1OC [1b]
Artemia salina nauplii [4]
  mortality of Artemia salina nauplii: less than 10%
[1]
  LC50 at 15 h: > 200 µM
[2]; 95% CI in cell
  EC50: 8.34 µM
Agaricus bisporus Tyr; 100 µM
  inhibition of Tyr: 23.5%
Agaricus bisporus Tyr; all the concentrations tested (25, 50 and 100 μM), versus negative control
  Tyr activity: significantly decrease Tyr activity

## COc1ccc(/C=C/C(=O)c2ccc(OCc3cn(CCO[C@@H]4O[C@H](COC(C)=O)[C@@H](OC(C)=O)[C@H](OC(C)=O)[C@H]4OC(C)=O)nn3)cc2O)cc1OC [8a, (2R,3R,4S,5R,6R)-2-(acetoxymethyl)-6-(2-(4-((4-((E)-3-(3,4-dimethoxyphenyl)acryloyl)-3-hydroxyphenoxy)methyl)-1H-1,2,3-triazol-1-yl)ethoxy)tetrahydro-2H-pyran-3,4,5-triyl triacetate]
[1]
  LC50 at 15 h: > 200 µM
[2]; 95% CI in cell
  EC50: 35.8 µM
[2]
  EC50: 27.1 µg/mL

## COc1cc(/C=C/C(=O)c2ccc(OCc3cn([C@@H]4O[C@H](COC(C)=O)[C@@H](OC(C)=O)[C@H](OC(C)=O)[C@H]4OC(C)=O)nn3)cc2O)cc(OC)c1OC [7b, (2R,3R,4S,5R,6R)-2-(acetoxymethyl)-6-(4-((3-hydroxy-4-((E)-3-(3,4,5-trimethoxyphenyl)acryloyl)phenoxy)methyl)-1H-1,2,3-triazol-1-yl)tetrahydro-2H-pyran-3,4,5-triyl triacetate]
Artemia salina nauplii [4]
  mortality of Artemia salina nauplii: less than 10%
[5]
  AChE activity: significantly induced
[1]
  LC50 at 15 h: > 200 µM
[2]; 95% CI in cell
  EC50: 3.28 µM
Navicula sp.; 15 μM, Dunnett test p < 0.05
  diatom growth inhibition screening: significant inhibitory activity
Navicula sp.; 240 h
  EC50: 41.8 µM and 30.9 µg/mL

## COc1cc(/C=C/C(=O)c2ccc(O)cc2O)cc(OC)c1OC [11b]
Artemia salina nauplii [4]
  mortality of Artemia salina nauplii: less than 10%
[5]
  AChE activity: significantly induced
[1]
  LC50 at 15 h: > 200 µM
[2]; 95% CI in cell
  EC50: 9.64 µM

## COc1ccc(-c2cc(=O)c3c(O)cc(OCc4cn([C@@H]5O[C@H](COC(C)=O)[C@@H](OC(C)=O)[C@H](OC(C)=O)[C@H]5OC(C)=O)nn4)cc3o2)cc1OC
other
  melting point: 143 to 145 °C

## N#Cc1c(-c2ccc(Cl)cc2)[nH]c(C(F)(F)F)c1Br [ECONEA]
Artemia salina nauplii [6]
  lethality to Artemia salina: 100%

## C#CCOc1ccc(C(=O)/C=C/c2cc(OC)c(OC)c(OC)c2)c(O)c1 [6b]
[3]
  bacterial growth inhibition screening: significant inhibitory activity
[1]
  LC50 at 15 h: > 200 µM
[2]; 95% CI in cell
  EC50: 85.6 µM
[2]
  EC50: 31.5 µg/mL

## COc1ccc(/C=C/C(=O)c2ccc(O)cc2O)cc1OC [11a]
Artemia salina nauplii [4]
  mortality of Artemia salina nauplii: less than 10%
[1]
  LC50 at 15 h: > 200 µM
[2]; 95% CI in cell
  EC50: 18.1 µM

## COCOc1ccc(C(=O)/C=C/c2cc(OC)c(OC)c(OC)c2)c(O)c1
other
  melting point: 132 to 134 °C

## COc1cc(-c2cc(=O)c3c(O)cc(OCc4cn([C@@H]5O[C@H](COC(C)=O)[C@@H](OC(C)=O)[C@H](OC(C)=O)[C@H]5OC(C)=O)nn4)cc3o2)cc(OC)c1OC
other
  melting point: 169 to 171 °C
